Assay [1] addresses T1, Human Cav2.2 channels (Homo sapiens, UniProt Q00975).
T1 construct: expressed in transfected cells
As to the kind of experiment: Fluorescent assay for Cav2.2 channels using potassium depolarization (Table 2, In Vitro Activity, Cav 2.2 Activity). The settings on record: for inhibition at 10 µM: read-out: % Inh at 10 μM; for inhibition at 30 µM: read-out: % Inh at 30 μM; for IC50: 30 mM K. The class given is cell-based. The text has this:
Human Cav2.2 channels were stably expressed in HEK293 cells along with alpha2-delta and beta subunits of voltage-gated calcium channels. An inwardly rectifying potassium channel (Kir2.3) was also expressed in these cells to allow more precise control of the cell membrane potential by extracellular potassium concentration. At low bath potassium concentration, the membrane potential is relatively negative, and is depolarized as the bath potassium concentration is raised. In this way, the bath potassium concentration can be used to regulate the voltage-dependent conformations of the channels. Compounds are incubated with cells in the presence of low (4 mM) potassium or elevated (12, 25 or 30 mM) potassium to determine the affinity for compound block of resting (closed) channels at 4 mM potassium or affinity for block of open and inactivated channels at 12, 25 or 30 mM potassium. After the incubation period, Cav2.2 channel opening is triggered by addition of higher concentration of potassium (70 mM final concentration) to further depolarize the cell. The degree of state-dependent block can be estimated from the inhibitory potency of compounds after incubation in different potassium concentrations.
Calcium influx through Cav2.2 channels is determined using a calcium sensitive fluorescent dye in combination with a fluorescent plate reader. Fluorescent changes were measured with either a VIPR (Aurora Instruments) or FLIPR (Molecular Devices) plate reader.
1. Seed cells in Poly-D-Lysine Coated 96 or 384-well plate and keep in a 37° C.-10% CO2 incubator overnight 2. Remove media, wash cells with 0.2 mL (96-well plate) or 0.05 mL (384-well plate) Dulbecco's Phosphate Buffered Saline (D-PBS) with calcium & magnesium (Invitrogen; 14040) 3. Add 0.1 mL (96-well plate) or 0.05 mL (384-well plate) of 4 μM fluor-4 (Molecular Probes; F-14202) and 0.02% Pluronic acid (Molecular Probes; P-3000) prepared in D-PBS with calcium & magnesium (Invitrogen; 14040) supplemented with 10 mM Glucose & 10 mM Hepes/NaOH; pH 7.4 4. Incubate in the dark at 25° C. for 60-70 min 5. Remove dye, wash cells with 0.1 mL (96-well plate) or 0.06 mL (384-well plate) of 4, 12, 25, or 30 mM Potassium Pre-polarization Buffer (PPB) 6. Add 0.1 mL (96-well plate) or 0.03 mL (384-well plate) of 4, 12, 25, 30 mM PPB with or without test compound 7. Incubate in the dark at 25° C. for 30 min 8. Read cell plate on VIPR instrument, Excitation=480 nm, Emission=535 nm 9. With VIPR continuously reading, add 0.1 mL (96-well plate) or 0.03 mL (384-well plate) of Depolarization Buffer (DB), which is 2× the final assay concentration, to the cell plate.

Assay [2] relates to T-type over L-type channels. The settings on record: cited from earlier work.

In general, IC50 refers to the concentration at which inhibition is half-maximal.

T1 sequence (Q00975 whole entry): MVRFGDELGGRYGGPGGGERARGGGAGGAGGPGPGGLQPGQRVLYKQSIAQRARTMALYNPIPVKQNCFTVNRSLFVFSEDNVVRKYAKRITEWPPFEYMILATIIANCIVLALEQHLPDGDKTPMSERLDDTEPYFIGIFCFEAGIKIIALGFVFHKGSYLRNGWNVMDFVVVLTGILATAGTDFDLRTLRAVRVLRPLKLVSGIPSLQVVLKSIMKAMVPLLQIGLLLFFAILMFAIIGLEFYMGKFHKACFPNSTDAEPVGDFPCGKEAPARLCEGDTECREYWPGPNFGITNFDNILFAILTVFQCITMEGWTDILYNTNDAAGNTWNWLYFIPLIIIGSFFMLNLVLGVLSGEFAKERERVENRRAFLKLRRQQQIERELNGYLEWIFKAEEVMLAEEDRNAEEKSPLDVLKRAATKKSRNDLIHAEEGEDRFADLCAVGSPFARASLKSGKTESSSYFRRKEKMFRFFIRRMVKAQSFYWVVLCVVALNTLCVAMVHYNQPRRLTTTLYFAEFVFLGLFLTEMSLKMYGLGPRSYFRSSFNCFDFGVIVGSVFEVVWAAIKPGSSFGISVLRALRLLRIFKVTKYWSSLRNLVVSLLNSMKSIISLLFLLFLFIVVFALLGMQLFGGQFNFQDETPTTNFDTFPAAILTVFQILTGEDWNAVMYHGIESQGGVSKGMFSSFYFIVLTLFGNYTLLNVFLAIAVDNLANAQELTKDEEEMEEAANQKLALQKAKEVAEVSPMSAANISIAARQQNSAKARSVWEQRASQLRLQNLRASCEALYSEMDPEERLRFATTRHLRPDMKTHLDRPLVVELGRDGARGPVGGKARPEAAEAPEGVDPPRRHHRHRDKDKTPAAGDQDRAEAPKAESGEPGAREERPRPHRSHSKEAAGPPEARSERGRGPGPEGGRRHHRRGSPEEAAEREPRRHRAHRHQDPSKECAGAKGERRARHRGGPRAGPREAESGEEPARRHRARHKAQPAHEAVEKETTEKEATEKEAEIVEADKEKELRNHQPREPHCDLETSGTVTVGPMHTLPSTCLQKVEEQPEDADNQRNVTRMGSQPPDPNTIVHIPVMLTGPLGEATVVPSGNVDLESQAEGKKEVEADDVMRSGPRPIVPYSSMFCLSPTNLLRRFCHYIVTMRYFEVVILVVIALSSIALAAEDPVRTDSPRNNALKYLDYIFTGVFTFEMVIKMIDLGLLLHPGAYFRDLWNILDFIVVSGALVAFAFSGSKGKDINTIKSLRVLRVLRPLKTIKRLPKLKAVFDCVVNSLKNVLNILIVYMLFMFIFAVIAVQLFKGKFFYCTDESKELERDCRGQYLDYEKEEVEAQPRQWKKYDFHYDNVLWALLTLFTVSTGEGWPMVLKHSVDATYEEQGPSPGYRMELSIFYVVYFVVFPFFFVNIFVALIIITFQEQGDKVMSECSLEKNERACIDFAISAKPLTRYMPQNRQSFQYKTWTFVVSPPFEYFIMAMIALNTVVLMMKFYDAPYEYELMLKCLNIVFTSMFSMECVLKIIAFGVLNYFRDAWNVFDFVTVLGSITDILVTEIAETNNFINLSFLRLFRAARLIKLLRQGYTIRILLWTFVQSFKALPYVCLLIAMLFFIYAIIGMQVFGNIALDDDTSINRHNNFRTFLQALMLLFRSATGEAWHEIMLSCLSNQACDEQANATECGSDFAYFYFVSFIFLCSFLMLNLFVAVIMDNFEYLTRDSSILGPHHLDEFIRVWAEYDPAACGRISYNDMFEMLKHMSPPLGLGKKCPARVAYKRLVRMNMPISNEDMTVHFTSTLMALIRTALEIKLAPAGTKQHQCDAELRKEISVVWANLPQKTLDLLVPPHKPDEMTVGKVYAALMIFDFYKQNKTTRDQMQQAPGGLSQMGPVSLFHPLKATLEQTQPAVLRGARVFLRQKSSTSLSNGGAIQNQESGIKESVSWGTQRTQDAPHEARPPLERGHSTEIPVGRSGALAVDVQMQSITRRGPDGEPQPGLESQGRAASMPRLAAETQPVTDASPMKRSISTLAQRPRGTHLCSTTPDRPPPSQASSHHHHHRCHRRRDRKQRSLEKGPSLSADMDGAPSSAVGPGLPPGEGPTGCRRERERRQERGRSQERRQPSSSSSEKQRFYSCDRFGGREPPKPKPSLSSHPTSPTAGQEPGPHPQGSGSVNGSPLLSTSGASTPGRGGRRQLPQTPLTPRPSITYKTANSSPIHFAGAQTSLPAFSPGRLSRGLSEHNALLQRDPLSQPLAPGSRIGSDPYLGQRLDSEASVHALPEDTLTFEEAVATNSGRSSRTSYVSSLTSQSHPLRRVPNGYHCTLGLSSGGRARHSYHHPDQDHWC
T1 sequence (P54289 25-1103 partner): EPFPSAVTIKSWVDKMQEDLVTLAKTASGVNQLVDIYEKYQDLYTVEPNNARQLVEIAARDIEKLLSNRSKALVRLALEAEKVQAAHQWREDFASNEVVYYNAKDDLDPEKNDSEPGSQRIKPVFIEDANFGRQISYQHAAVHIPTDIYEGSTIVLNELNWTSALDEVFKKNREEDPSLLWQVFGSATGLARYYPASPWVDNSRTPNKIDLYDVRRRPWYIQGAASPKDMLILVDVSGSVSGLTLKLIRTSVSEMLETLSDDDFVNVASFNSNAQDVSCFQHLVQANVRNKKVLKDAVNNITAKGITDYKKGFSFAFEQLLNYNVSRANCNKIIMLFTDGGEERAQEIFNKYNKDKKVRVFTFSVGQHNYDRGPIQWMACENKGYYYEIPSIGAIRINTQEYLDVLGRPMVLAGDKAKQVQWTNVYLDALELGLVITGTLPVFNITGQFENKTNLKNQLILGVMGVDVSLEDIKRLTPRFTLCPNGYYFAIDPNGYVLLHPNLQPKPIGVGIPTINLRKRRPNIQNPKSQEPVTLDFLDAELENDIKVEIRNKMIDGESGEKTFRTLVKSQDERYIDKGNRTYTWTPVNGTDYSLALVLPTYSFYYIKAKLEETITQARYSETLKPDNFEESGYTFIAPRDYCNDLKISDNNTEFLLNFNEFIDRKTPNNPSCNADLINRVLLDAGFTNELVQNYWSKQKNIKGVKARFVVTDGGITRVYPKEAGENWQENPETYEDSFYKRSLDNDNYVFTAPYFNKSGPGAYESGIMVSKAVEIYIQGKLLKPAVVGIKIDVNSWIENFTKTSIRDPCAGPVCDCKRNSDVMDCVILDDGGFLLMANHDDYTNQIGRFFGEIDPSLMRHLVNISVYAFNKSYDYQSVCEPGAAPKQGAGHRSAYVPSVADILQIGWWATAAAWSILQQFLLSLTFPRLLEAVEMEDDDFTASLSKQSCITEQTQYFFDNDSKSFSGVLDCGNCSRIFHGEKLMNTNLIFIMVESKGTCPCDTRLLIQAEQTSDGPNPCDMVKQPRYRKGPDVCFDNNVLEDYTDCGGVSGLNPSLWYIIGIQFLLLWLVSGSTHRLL
T1 sequence (P54284 whole entry partner): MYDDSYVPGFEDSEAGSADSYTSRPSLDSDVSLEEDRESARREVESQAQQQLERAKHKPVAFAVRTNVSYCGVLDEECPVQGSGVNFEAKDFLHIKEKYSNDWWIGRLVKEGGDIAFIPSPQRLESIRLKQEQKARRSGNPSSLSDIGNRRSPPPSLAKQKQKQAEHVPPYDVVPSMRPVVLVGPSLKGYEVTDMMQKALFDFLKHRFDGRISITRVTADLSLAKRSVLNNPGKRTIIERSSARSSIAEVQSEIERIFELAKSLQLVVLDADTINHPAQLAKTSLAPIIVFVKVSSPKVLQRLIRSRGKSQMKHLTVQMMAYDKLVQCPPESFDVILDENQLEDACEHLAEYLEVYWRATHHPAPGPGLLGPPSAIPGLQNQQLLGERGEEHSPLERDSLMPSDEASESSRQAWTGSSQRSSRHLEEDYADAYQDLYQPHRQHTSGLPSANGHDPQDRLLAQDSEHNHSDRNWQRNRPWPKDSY

As for `O=C(CC(c1ccccc1)c1ccccc1)NC1(C(=O)N2CCN(c3ccccc3)CC2)CCCCC1` [Compound 4, 3,3-diphenyl-N-(1-(4-phenylpiperazine-1-carbonyl)cyclohexyl)propanamide], in assay [1], the inhibition at 10 µM was determined as 80%, the inhibition at 30 µM worked out at 90% and the half-inhibitory concentration (IC50) stood at 0.34 µM.

In the case of `O=C(CC(c1ccccc1)c1ccccc1)NC1(C(=O)N2CCN(c3ccc(Cl)cc3)CC2)CCCCC1` [Compound 11, N-(1-(4-(4-chlorophenyl)piperazine-1-carbonyl)cyclohexyl)-3,3-diphenylpropanamide], in assay [1], the inhibition at 10 µM was 93%, the inhibition at 30 µM was 101% and the IC50 is 0.69 µM.

Consider `O=C(CC(c1ccccc1)c1ccccc1)NC1(C(=O)NCc2ccc(F)cc2F)CCCCC1` [Compound 10, N-(2,4-difluorobenzyl)-1-(3,3-diphenylpropanamido)cyclohexanecarboxamide], for which, in assay [1], the inhibition at 10 µM turned out to be 96%, the inhibition at 30 µM is 101% and the half-maximal inhibitory concentration (IC50) is 0.43 µM.

With `O=C(CC(c1ccccc1)c1ccccc1)NC1(C(=O)N2CCN(c3cccc(F)c3)CC2)CCCCC1` [Compound 15, N-(1-(4-(3-fluorophenyl)piperazine-1-carbonyl)cyclohexyl)-3,3-diphenylpropanamide], in assay [1], the inhibition at 10 µM is 72%, the inhibition at 30 µM was 81% and the 50% inhibitory concentration (IC50) came to 0.33 µM.

In the case of `COCC(=O)O[C@]1(CCN(C)CCCc2nc3ccccc3[nH]2)CCc2cc(F)ccc2[C@@H]1C(C)C` [Mibefradil], the “fold selective for T-type over L-type channels” value in assay [2] is listed as 10-30 fold.

As to “3,3-diphenyl-N-(1-(4-phenylpiperazine- 1-carbonyl)cyclohexyl)propanamide [Compound 5]”, in assay [1], the “% Inh at 10 μM” value is 92%, the “% Inh at 30 μM” value worked out at 84% and the IC50 turned out to be 0.38 µM.

As to `O=C(CC(c1ccccc1)c1ccccc1)NC1(C(=O)N2CCN(c3ccc(C(F)(F)F)cc3)CC2)CCCCC1` [Compound 13, 3,3-diphenyl-N-(1-(4-(4-(trifluoromethyl)phenyl)piperazine-1-carbonyl)cyclohexyl)propanamide], in assay [1], the inhibition at 10 µM was 96%, the inhibition at 30 µM stood at 95% and the half-inhibitory concentration (IC50) stood at 0.59 µM.

With `CC(C)(C)N1CCN(C(=O)C2(NC(=O)CC(c3ccccc3)c3ccccc3)CCCCC2)CC1` [Compound 1, N-(1-(4-tert-butylpiperazine-1-carbonyl)cyclohexyl)-3,3-diphenylpropanamide], in assay [1], the inhibition at 10 µM is 42% and the inhibition at 30 µM worked out at 65%.

Regarding `O=C(CC(c1ccccc1)c1ccccc1)NC1(C(=O)NCc2ccc(O)cc2)CCCCC1` [Compound 18, 1-(3,3-diphenylpropanamido)-N-(4-hydroxybenzyl)cyclohexane carboxamide], in assay [1], the inhibition at 10 µM is 87% and the inhibition at 30 µM came out at 97%.

On to `Cc1cccnc1CNC(=O)C1(NC(=O)CC(c2ccccc2)c2ccccc2)CCCCC1` [Compound 23, 1-(3,3-diphenylpropanamido)-N-((3-methylpyridin-2-yl)methyl)cyclohexanecarboxamide], for which, in assay [1], the inhibition at 10 µM was determined as 81% and the inhibition at 30 µM came out at 88%.

In the case of `COc1ccc(CNC(=O)C2(NC(=O)CC(c3ccccc3)c3ccccc3)CCCCC2)cc1` [Compound 9, 1-(3,3-diphenylpropanamido)-N-(4-methoxybenzyl)cyclohexane carboxamide], in assay [1], the inhibition at 10 µM stood at 97%, the inhibition at 30 µM amounted to 102% and the IC50 was 0.17 µM.

Regarding `Cc1ccc(N2CCN(C(=O)C3(NC(=O)CC(c4ccccc4)c4ccccc4)CCCCC3)CC2)cc1C` [Compound 12, N-(1-(4-(3,4-dimethylphenyl)piperazine-1-carbonyl)cyclohexyl)-3,3-diphenylpropanamide], in assay [1], the inhibition at 10 µM was 95%, the inhibition at 30 µM was 98% and the IC50 turned out to be 0.37 µM.

For the molecule `CS(=O)(=O)c1ccc(CNC(=O)C2(NC(=O)CC(c3ccccc3)c3ccccc3)CCCCC2)cc1` [Compound 17, 1-(3,3-diphenylpropanamido)-N-(4-(methylsulfonyl)benzyl)cyclohexane carboxamide], in assay [1], the inhibition at 10 µM amounted to 86% and the inhibition at 30 µM stood at 96%.

With `Cc1ccnc(N2CCN(C(=O)C3(NC(=O)CC(c4ccccc4)c4ccccc4)CCCCC3)CC2)c1` [Compound 16, N-(1-(4-(4-methylpyridin-2-yl)piperazine-1-carbonyl)cyclohexyl)-3,3-diphenylpropanamide], in assay [1], the inhibition at 10 µM was 81%, the inhibition at 30 µM turned out to be 85% and the concentration for half-maximal inhibition (IC50) was determined as 2.75 µM.

Turning to `Cc1cnccc1CNC(=O)C1(NC(=O)CC(c2ccccc2)c2ccccc2)CCCCC1` [Compound 21, 1-(3,3-diphenylpropanamido)-N-((3-methylpyridin-4-yl)methyl)cyclohexanecarboxamide], in assay [1], the inhibition at 10 µM was 14% and the inhibition at 30 µM came out at 51%.

Take `O=C(CC(c1ccccc1)c1ccccc1)NC1(C(=O)NCc2ccc(F)cc2)CCCCC1` [Compound 8, 1-(3,3-diphenylpropanamido)-N-(4-fluorobenzyl)cyclohexanecarboxamide]: in assay [1], the inhibition at 10 µM is 99%, the inhibition at 30 µM is 102% and the concentration for half-maximal inhibition (IC50) stood at 0.19 µM.

Turning to `O=C(CC(c1ccccc1)c1ccccc1)NC1(C(=O)N2CCN(c3ccc(F)cc3F)CC2)CCCCC1` [Compound 14, N-(1-(4-(2,4-difluorophenyl)piperazine-1-carbonyl)cyclohexyl)-3,3-diphenylpropanamide], in assay [1], the inhibition at 10 µM came to 81%, the inhibition at 30 µM came out at 86% and the 50% inhibitory concentration (IC50) amounted to 0.32 µM.

On to `Cc1ccccc1C(CC(=O)NC1(C(=O)N2CCN(c3ccccc3)CC2)CCCCC1)c1ccccc1C` [Compound 3, N-(1-(4-phenylpiperazine-1-carbonyl)cyclohexyl)-3,3-dio-tolylpropanamide], for which, in assay [1], the inhibition at 10 µM is 95%, the inhibition at 30 µM is 96% and the concentration for half-maximal inhibition (IC50) is 0.44 µM.

For the molecule `Cc1ccccc1C(CC(=O)NC1(C(=O)N2CCN(C(C)(C)C)CC2)CCCCC1)c1ccccc1C` [Compound 2, N-(1-(4-tert-butylpiperazine-1-carbonyl)cyclohexyl)-3,3-dio-tolylpropanamide], in assay [1], the inhibition at 10 µM was 67% and the inhibition at 30 µM was 92%.

In the case of “N-(1-(4-(4-fluorophenyl)piperazine-1- carbonyl)cyclohexyl)-3,3- diphenylpropanamide [Compound 6]”, in assay [1], the “% Inh at 10 μM” value amounted to 99%, the “% Inh at 30 μM” value is 100% and the concentration for half-maximal inhibition (IC50) was 0.28 µM.

`O=C(CC(c1ccccc1)c1ccccc1)NC1(C(=O)NCc2nccs2)CCCCC1` [Compound 22, 1-(3,3-diphenylpropanamido)-N-(thiazol-2-ylmethyl)cyclohexane carboxamide]: in assay [1], the inhibition at 10 µM turned out to be 55% and the inhibition at 30 µM worked out at 77%.

As to `Cc1cc(CNC(=O)C2(NC(=O)CC(c3ccccc3)c3ccccc3)CCCCC2)no1` [Compound 20, 1-(3,3-diphenylpropanamido)-N-((5-methylisoxazol-3-yl)methyl)cyclohexanecarboxamide], in assay [1], the inhibition at 10 µM was 71% and the inhibition at 30 µM was 86%.

On to `Cc1cnc(CNC(=O)C2(NC(=O)CC(c3ccccc3)c3ccccc3)CCCCC2)cn1` [Compound 19, 1-(3,3-diphenylpropanamido)-N-((5-methylpyrazin-2-yl)methyl)cyclohexanecarboxamide], for which, in assay [1], the inhibition at 10 µM came out at 62% and the inhibition at 30 µM turned out to be 93%.

In the case of `O=C(CC(c1ccccc1)c1ccccc1)NC1(C(=O)NCc2cccc(C(F)(F)F)c2)CCCCC1` [Compound 7, 1-(3,3-diphenylpropanamido)-N-(3-(trifluoromethyl)benzyl)cyclohexanecar-boxamide], in assay [1], the inhibition at 10 µM turned out to be 99%, the inhibition at 30 µM is 102% and the half-inhibitory concentration (IC50) was found to be 0.19 µM.

Values taken from patent publication US20090270338A1, “DIARYL-CYCLYLALKYL DERIVATIVES AS CALCIUM CHANNEL BLOCKERS” (priority 2008, published 2009).
